Measurements from patent US11629331B2, “Method of differentiation of human induced pluripotent stem cell to dermal papilla precursor cell and use thereof” (SEOUL NATIONAL UNIVERSITY R & DB FOUNDATION, priority 2017, dated 2023).

Test system: neural crest stem cells
Test: Flow cytometry (SDC1, CD133) of differentiation of neural crest stem cells into dermal papilla precursor cells
Assay type: cell-based, human
Conditions: CHIR-99021 at 0.1 μM, 1 μM and 10 μM with bFGF and BMP4; after about 2 weeks
Source text: To develop a dermal papilla precursor cell medium composition for inducing differentiation of dermal papilla precursor cells from neural crest stem cells, the possibility of differentiation into dermal papilla precursor cells was examined by treatment with several factors alone known as vital materials for dermal papilla cell differentiation or a combination thereof. To confirm differentiation into dermal papilla precursor cells, mouse anti-human SDC1 and CD133/2 antibodies were stained using PBS supplemented with 2% FBS, and then the stained cells were analyzed using a flow cytometer (BD Biosciences). A DMEM/[…]) (Reference 1) (Thermo Fisher, catalog no. […] To determine the role of a GSK-3 inhibitor as a WNT signal activator in the dermal papilla precursor cell medium composition for inducing differentiation of dermal papilla precursor cells from neural crest stem cells, the possibility of differentiation into dermal papilla precursor cells was examined by treatment with not only 6-bromoindirubin-3'-oxime (BIO) but also CHIR-99021 at 0.1 μM, 1 μM, and 10 μM. To confirm the possibility of differentiation into dermal papilla precursor cells, mouse anti-human SDC1 and CD133/2 antibodies were stained using PBS supplemented with 2% FBS, and then the stained cells were analyzed using a flow cytometer (BD Biosciences). A DMEM/[…]) (Reference 1) (Thermo Fisher, catalog no. […]

Cc1c[nH]c(-c2cnc(NCCNc3ccc(C#N)cn3)nc2-c2ccc(Cl)cc2Cl)n1 [CHIR-99021]
differentiation efficiency into dermal papilla precursor cells (SDC1, CD133 flow cytometry): differentiation efficiency increased according to the concentration
